Experiment: Example 3: phase 3 trial, enavogliflozin 0.3 mg vs dapagliflozin 10 mg once a day for 24 weeks added to metformin and gemigliptin in patients with type 2 diabetes (same endpoints, rescue drug)
Type: in vivo, human
Details: week 18, per-protocol set
Protocol: 1) when Metformin (≥1,000 mg/Day) was Administered at a Constant Dose for at Least 8 Weeks Prior to Pre-Visit (Pre-Screening) • Metformin (≥1,000 mg/day) and gemigliptin (50 mg/day) were co-administered during the 8-week stabilization period. […] 4) when Metformin (≥1,000 mg/Day) and Gemigliptin (50 mg/Day) were Co-Administered at Constant Doses for at Least 8 Weeks Prior to Pre-Visit (Prescreening) • Without a separate stabilization period, Pre-visit (pre-screening) was Visit 1 (screening).
Subjects who met the inclusion/exclusion criteria continued to receive metformin and gemigliptin while receiving a placebo of the clinical trial drug in a single-blind (subject-blinded) state for a 2-week run-in period.
Here, the randomized subjects were stratified according to the administration therapy (co-administration with two or less agents (one or two agents) or three or more agents) of a conventional hypoglycemic agent (before washout of another hypoglycemic agent) within 24 weeks prior to obtaining written informed consent and by an HbA1c value (<8% or ≥8%) at Visit 1 (screening) measured in the central laboratory.
The randomized subjects were administered two tablets of the clinical trial drug corresponding to each administration group once a day, and then visited the institution at weeks 6, 12, 18, and 24 during the 24-week administration period to conduct efficacy and safety assessments. In addition, during the clinical trial period, they were instructed to exercise regularly and control their diet without changing their daily life patterns.
• 1) Change in HbA1c at week 24 after administration of clinical trial drug compared to Visit 2 (randomization)
• 1) Change in HbA1c at each time point of weeks 6, 12, and 18 after administration of clinical trial drug compared to Visit 2 (randomization) • 2) Change in FPG at each time point of weeks 6, 12, 18, and 24 after administration of clinical trial drug compared to Visit 2 (randomization) • 3) Proportion of subjects achieving HbA1c<7% at each time point of weeks 6, 12, 18, and 24 after administration of clinical trial drug • 4) Proportion of subjects achieving HbA1c<6.5% at each time point of weeks 6, 12, 18, and 24 after administration of clinical trial drug • 5) Proportion of subjects achieving therapeutic response (HbA1c change (HbA1c at Visit 2—HbA1c at each evaluation time point)>0.5% or HbA1c<7% at each evaluation time point compared to Visit 2 (randomization)) at each time point of weeks 6, 12, 18, and 24 after administration of clinical trial drug • 6) Proportion of subjects achieving therapeutic response (HbA1c change (HbA1c at Visit 2—HbA1c at each evaluation time point)>0.7% or HbA1c<7% at each evaluation time point compared to Visit 2 (randomization)) at each time point of weeks 6, 12, 18, and 24 after administration of clinical trial drug • 7) Proportion of subjects achieving therapeutic response (HbA1c change (HbA1c at Visit 2—HbA1c at each evaluation time point)>1% or HbA1c<7% at each evaluation time point compared to Visit 2 (randomization)) at each time point of weeks 6, 12, 18, and 24 after administration of clinical trial drug

[1] = enavogliflozin 0.3 mg, dapagliflozin 10 mg

In the case of `CCOc1ccc(Cc2cc([C@@H]3O[C@H](CO)[C@@H](O)[C@H](O)[C@H]3O)ccc2Cl)cc1` [Dapagliflozin, reference compound], the “Adiponectin, Mean” value is reported as 6.65 µg/mL, the “Adiponectin, Median” value is reported as 6.21 µg/mL and the “Change from baseline in HOMA-IR, ANCOVA LS mean” value is reported as −1.01. For the same molecule, the “Change from baseline in HOMA-IR, Mean” value was −1.00, the “Change from baseline in HOMA-IR, Median” value was −0.75 and the “Change from baseline in HOMA-β, ANCOVA LS mean” value was 4.49. For the same molecule, the “Change from baseline in HOMA-β, Mean” value was 5.32, the “Change from baseline in HOMA-β, Median” value was 2.20 and the “Change from baseline in UACR, ANCOVA LS mean” value was -8.90 g/kg. The “Change from baseline in UACR, Mean” value was -8.84 g/kg, the “Change from baseline in UACR, Median” value was 0.20 g/kg and the “Change from baseline in UGCR, ANCOVA LS mean” value was 45.40 mg/mg. The “Change from baseline in UGCR, Mean” value was 43.29 mg/mg, the “Change from baseline in UGCR, Median” value was 41.28 mg/mg and the “Change from baseline in adiponectin, ANCOVA LS mean” value was 0.36 µg/mL. For the same molecule, the “Change from baseline in adiponectin, Mean” value was 0.30 µg/mL, the “Change from baseline in adiponectin, Median” value was 0.36 µg/mL and the “Change from baseline in leptin, ANCOVA LS mean” value was -1.06 ng/mL. For the same molecule, the “Change from baseline in leptin, Mean” value was -1.36 ng/mL, the “Change from baseline in leptin, Median” value was -0.75 ng/mL and the “HOMA-IR (insulin resistance), Mean” value was 1.85. For the same molecule, the “HOMA-IR (insulin resistance), Median” value was 1.53, the “HOMA-β (beta-cell function), Mean” value was 45.79 and the “HOMA-β (beta-cell function), Median” value was 36.80. The “Leptin, Mean” value was 9.52 ng/mL, the “Leptin, Median” value was 7.80 ng/mL and the “UACR, Mean” value was 25.86 g/kg. The “UACR, Median” value was 10.20 g/kg, the “UGCR, Mean” value was 44.82 mg/mg and the “UGCR, Median” value was 42.32 mg/mg. For the same molecule, the “Body weight, Mean” value [1] was 64.37 kg, the “Change from baseline in FPG, ANCOVA LS mean” value [1] was -23.55 mg/dL and the “Change from baseline in FPG, Mean” value [1] was -24.80 mg/dL. For the same molecule, the “Change from baseline in FPG, Median” value [1] was -19.00 mg/dL, the “Change from baseline in HbA1c, ANCOVA LS mean” value [1] was −0.75 % p and the “Change from baseline in HbA1c, Mean” value [1] was −0.79 % p. For the same molecule, the “Change from baseline in HbA1c, Median” value [1] was −0.72 % p, the “Change from baseline in body weight, ANCOVA LS mean” value [1] was -3.01 kg and the “Change from baseline in body weight, Mean” value [1] was -2.84 kg. The “Change from baseline in body weight, Median” value [1] was -2.70 kg, the “Change from baseline in fasting C-peptide, ANCOVA LS mean” value [1] was -0.06 ng/mL and the “Change from baseline in fasting C-peptide, Mean” value [1] was -0.06 ng/mL. The “Change from baseline in fasting C-peptide, Median” value [1] was -0.07 ng/mL, the “FPG, Mean” value [1] was 115.72 mg/dL and the “FPG, Median” value [1] was 114.00 mg/dL. The “Fasting C-peptide, Mean” value [1] was 0.63 ng/mL, the “Fasting C-peptide, Median” value [1] was 0.60 ng/mL and the “HbA1c, Mean” value [1] was 7.04%. For the same molecule, the “HbA1c, Median” value [1] was 6.97%, the “Subjects achieving HbA1c target of <6.5%, (%)” value [1] was 12.20% and the “Subjects achieving HbA1c target of <7%, %” value [1] was 56.10%.

— patent US20260130933A1, “PHARMACEUTICAL COMPOSITION FOR PREVENTION OR TREATMENT OF NEPHROPATHY AND/OR DIABETES MELLITUS, COMPRISING ENAVOGLIFLOZIN” (DAEWOONG PHARMACEUTICAL CO., LTD., priority 2022, published 2026)
